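Where inhibition never reached the appropriate level, the endpoint shown equals the highest concentration tested. Otherwise, values were interpolated linearly from a five-concentration, 48-hour dose response in 96-well plates. The concentration for 50% growth inhibition is given as GI50. Definition used: TGI = concentration required for complete inhibition of growth.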
Experiments:
Experiment in all cases: NCI-60 cell line screen, 48 h
[1] = tested on: LOX IMVI melanoma
[2] = tested on: CAKI-1 renal
[3] = tested on: NCI-H226 lung
[4] = tested on: OVCAR-4 ovarian
[5] = tested on: HCC-2998 colon
[6] = tested on: NCI-H522 lung
[7] = tested on: OVCAR-8 ovarian
[8] = tested on: RXF 393 renal
[9] = tested on: DU-145 prostate
[10] = tested on: MDA-MB-435

| SMILES | TGI [1] [µM] | TGI [2] [µM] | TGI [3] [µM] | TGI [4] [µM] | TGI [5] [µM] | TGI [6] [µM] | TGI [7] [µM] | TGI [8] [µM] | GI50 [1] [µM] | GI50 [2] [µM] | GI50 [3] [µM] | GI50 [4] [µM] | GI50 [5] [µM] | GI50 [7] [µM] | GI50 [9] [µM] | TGI [9] [µM] | GI50 [10] [µM] | TGI [10] [µM] | GI50 [8] [µM] | GI50 [6] [µM] |
| --- | --- | --- | --- | --- | --- | --- | --- | --- | --- | --- | --- | --- | --- | --- | --- | --- | --- | --- | --- | --- |
| COC(=O)c1s/c(=N\C(=S)N(C)C)n(-c2ccc(Cl)cc2)c1C(=O)OC | > 100 | > 100 | > 100 | > 100 | > 100 | > 100 | > 100 | > 100 | – | – | – | – | – | – | – | – | – | – | – | – |
| COc1cc(/C=C\c2cc(OC)c(OC)c(OC)c2)cc(N/C=C\C(=O)c2cc(OC)c(OC)c(OC)c2)c1OC | > 100 | > 100 | > 100 | > 100 | > 100 | – | > 100 | – | 3.54 | 3.37 | 5.46 | 2.91 | 8.92 | 4.7 | 3.64 | > 100 | – | – | – | – |
| C[Si](C)(C)/C(Br)=C\CCN1C(=O)CCC1=O | > 100 | > 100 | > 100 | > 100 | > 100 | – | > 100 | > 100 | – | – | – | – | – | – | – | – | – | – | – | – |
| CC(=O)N1CCC(=O)/C(=C/c2ccccc2)C1 | 32.9 | 30 | > 100 | 37.8 | > 100 | – | 99.3 | 67.6 | – | – | – | – | – | – | – | – | – | – | – | – |
| COc1cccc2c1C(=O)c1c(O)c3c(c(O)c1C2=O)C[C@@](O)(/C(C)=N/NC(=O)c1ccc(Cl)cc1)C[C@@H]3OC1CC(N)C(O)C(C)O1 (some centres undefined) | – | 5.98 | 0.897 | 2.31 | – | – | 3.02 | – | – | 0.708 | 0.187 | 0.348 | – | 0.268 | 0.271 | 13.5 | – | – | – | – |
| CCOC(=O)/C=C/c1ccc(C#Cc2ccccc2)cc1 | > 100 | > 100 | > 100 | > 100 | > 100 | – | > 100 | > 100 | > 100 | > 100 | > 100 | 68.4 | > 100 | > 100 | – | – | > 100 | > 100 | 49.2 | – |
| C=CCN1CCC23c4c5ccc(O)c4OC2C(=NN=C2CCC4(O)C6Cc7ccc(O)c8c7C4(CCN6CC=C)C2O8)CCC3(O)C1C5 (centres undefined) | 41.1 | > 100 | > 100 | 40.8 | 43.2 | 72.1 | 61.7 | – | – | – | – | – | – | – | – | – | – | – | – | – |
| [N-]=[N+]=N/C1=C/CCCCC(=O)C1 | > 100 | > 100 | – | > 100 | > 100 | > 100 | > 100 | > 100 | – | – | – | – | – | – | – | – | – | – | – | – |
| C[C@]12CCC(=O)C=C1CC[C@@H]1C2CC[C@]2(C)Nc3[nH]ncc3CC12 (some centres undefined) | – | > 100 | > 100 | > 100 | > 100 | – | > 100 | > 100 | – | – | – | – | – | – | – | – | – | – | – | – |
| COC12OCCN(C)C1=CC(=O)C1=NNC(C)C12 (centres undefined) | > 100 | > 100 | > 100 | – | > 100 | > 100 | > 100 | > 100 | – | – | – | – | – | – | – | – | – | – | – | – |
| CCN(CC)CCSc1c2ccccc2nc2c(OC)ccc(OC)c12 | > 41.2 | > 22.2 | 50.7 | > 20 | > 36 | 19.8 | 12 | 3.94 | – | – | – | – | – | – | – | – | – | – | – | – |
| COC(=O)C1=C(C(=O)OC)C2=S(SC3=C2CCCC3)S1 (centres undefined) | 7.05 | > 100 | – | > 100 | > 100 | 11.3 | 39.8 | 32.3 | – | – | – | – | – | – | – | – | – | – | – | – |
| CS/C(=C(\S)c1ccccc1)c1ccccc1 | > 100 | > 100 | > 100 | > 100 | > 100 | > 100 | > 100 | > 100 | – | – | – | – | – | – | – | – | – | – | – | – |
| CCOC(=O)c1ccc(N=Nc2cc(C(=O)OCC)ccc2O)cc1 | > 100 | > 100 | – | – | – | > 100 | > 100 | > 100 | – | – | – | – | – | – | – | – | – | – | – | – |
| O=C1CCC(=O)c2c1c(O)c1ccncc1c2O | 27.4 | 42.4 | 45.3 | 25.6 | 29.6 | 24.5 | 25.3 | 35.6 | – | – | – | – | – | – | – | – | – | – | – | – |
| COc1ccc(/C(=C\C=C(C#N)C#N)Sc2nc3ccccc3s2)cc1 | – | > 50 | 40.9 | – | 16.9 | > 50 | 33.9 | 2.97 | – | 15.8 | 11.2 | – | 9.02 | 13.7 | – | – | 8.34 | 18.5 | 1.47 | 14.6 |
| CC(C)(C)[Si](C)(C)OC1C(=O)C[C@H]2CCCC[C@@H]12 (some centres undefined) | > 100 | > 100 | – | > 100 | > 100 | – | > 100 | > 100 | – | – | – | – | – | – | – | – | – | – | – | – |
| Cc1ccc(S(=O)OCc2c(C)c(C)c(COS(=O)c3ccc(C)cc3)c(C)c2C)cc1 (centres undefined) | > 100 | > 100 | > 100 | > 100 | > 100 | > 100 | > 100 | > 100 | – | – | – | – | – | – | – | – | – | – | – | – |
| Cn1cc(-c2csc(-c3c[nH]c4ccc(Br)cc34)n2)c2cnccc21 | – | – | 6 | 5.71 | – | – | – | 2.96 | – | – | 2.34 | 2.35 | – | – | 2.25 | 5.62 | – | – | 1.47 | – |
| O=c1[nH]c2ccc(O)cc2o1 | – | > 100 | > 100 | > 100 | > 100 | > 100 | > 100 | > 100 | – | – | – | – | – | – | – | > 100 | – | – | – | – |

— PubChem BioAssay (NCI)
